{
  "source": "patent US8236772B2",
  "about": "“Methods of modulating angiogenesis and screening compounds for activity in modulating angiogenesis” (The Board of Trustees of the Leland Stanford Junior …, priority 2005, dated 2012)",
  "key": {"[1]": {"tested_on": "thioredoxin activity in human microvascular endothelial cells", "experiment": "Thioredoxin bioassay (colorimetric, DTNB) on HMVEC protein extracts", "type": "cell-based", "details": "for thioredoxin activity after siRNA transfection: in the absence of the stimuli, vs vehicle control, FIG. 6A", "experimental": "Thioredoxin Bioassay. Thioredoxin was assayed based upon previously published colorimetric protocols. Wang et al. (2002) J. Biol Chem. 277:26496-26500. The level of thioredoxin activity is assessed at […] via the […] of a colorimetric substrate DTNB (5,5′-dithiobis(2-nitrobenzoic acid)). Protein extracts were obtained by subjecting cells to a lysis buffer (20 mM HEPES (pH 7.9), 300 mM NaCl, 100 mM KCl, 10 mM EDTA, 0.1% Nonidet P-40, PMSF protease inhibitors).\nDouble-stranded siRNA were transfected into cells (Lipofectamine2000 reagent, Invitrogen). 24 hours after transfection, HMVEC migration experiments were performed, in the presence of vehicle or stimuli. Cell migration and thioredoxin activity were assayed as described above."}, "[2]": {"tested_on": "human microvascular endothelial cell (HMVEC) migration", "experiment": "Cell migration assay (wounding) on HMVEC", "type": "cell-based", "details": "for effect of siRNA on growth factor induced endothelial cell migration: 96 hours after transfection, FIG. 7; for HMVEC migration after siRNA transfection: in the absence of added growth factors, vs vehicle control, FIG. 6B"}, "HMVECs": {"tested_on": "HMVECs", "experiment": "cDNA microarray analysis of HMVECs", "type": "cell-based, human", "experimental": "Microarray Analyses. HMVECs were grown to 50-70% confluency. Subconfluent rather than confluent HMVEC cultures were studied because they more closely resemble conditions associated with cell migration in vivo, and because this condition is associated with increased EC expression of α7-nAChRs. Heeschen et al. (2002) J. Clin. Invest. 110:527-536. The concentration of the FBS in the media was then reduced to 1% so as to render the endothelial cells quiescent. After 24 hours, nicotine (10^−8M), VEGF (10 ng/ml) or bFGF (10 ng/ml) was added. Total RNA was then harvested at 24 hours. Five separate experiments per condition were processed for cDNA microarray analysis. Fluorescently labeled cDNAs (stimulated HMVECs versus vehicle-treated HMVECs at 24 hours post incubation) were hybridized on cDNA microarrays containing 39711 nonredundant cDNA clones, representing 26,260 unique UniGene clusters (SFGF, Stanford, Calif.). Eisen et al. (1998) Proc Natl Acad Sci USA 95:14863-14868. Scanning of processed microarray slides was performed using a GenePix400A scanner and images analysed with GENEPIX PRO software (Axon Instruments, Foster City, Calif.). Microarray data were stored in the Stanford Microarray Database (Stanford, Calif.). Spots with signal less than 2.5-fold above background were removed in both channels and/or a regression correlation of less than 0.6. Genes with less than 80% evaluable data were excluded and the remaining data was then normalized. The significance of microarrays (SAM) algorithm was used with a one-class design to identify genes differentially expressed by treatment with each stimuli at each timepoint. Tusher et al. (2001) Proc Natl Acad Sci USA. 98:5116-5121. Delta values giving approximately 5% false discovery were chosen. To analyze convergent gene expression profiles, all differentially expressed genes at 24 hours were hierarchically clustered by gene and by array (Cluster software, version 2.11), and the results analysed with Treeview software (version 1.6). Eisen et al. (1998) supra."}, "[3]": {"tested_on": "human microvascular endothelial cell (HMVECs)", "from_the_text": "To further investigate the effects of nAChR-dependent pathways on EC migration, the effect of the nAChR antagonist, hexamethonium, on EC migration induced by nicotine, VEGF and bFGF was studied."}, "[4]": {"details": "HMVEC, vs vehicle, nicotine 10^−8M, VEGF 10 ng/ml, bFGF 10 ng/ml, hexamethonium 10^−4M, FIG. 4, 5A"}, "[5]": {"details": "vs vehicle, nicotine 10^−8M to 10^−4M, VEGF or bFGF 1-10 ng/ml, FIG. 1, 2A, 5B"}, "[6]": {"details": "HMVEC, 24 h, effect stronger for bFGF than for nicotine or VEGF, FIG. 3B Panel D"}},
  "note": "“Also recorded” adds a separate entry of the source. Read-outs that look alike come from different tables or passages of the source.",
  "data": [
    {"molecule": "scrambled siRNA: Scrambled (randomly arranged) RNAi GUUGGCCAUUCUACUUCGCTTdtt (SEQ ID NO:17) used as negative control (GUUGGCCAUUCUACUUCGCTTDTT; dTdT overhang, further chemistry not given here)", "values": [
      {"measurement": "thioredoxin activity after siRNA transfection", "setting": "[1]; HMVEC", "value": "no effect"},
      {"measurement": "effect of siRNA on growth factor induced endothelial cell migration", "setting": "[2]; HMVEC", "value": "no effect"},
      {"measurement": "HMVEC migration after siRNA transfection", "setting": "[2]", "value": "no effect"}
    ]},
    {"molecule": "siRNA against TXNIP: Double-stranded siRNA to TXNIP: sense ACAGACUUCGGAGUACCUGtt (SEQ ID NO: 14), antisense CAGGUACUCCGAAGUCUGUtt (SEQ ID NO: 15) (sense ACAGACUUCGGAGUACCUGTT; antisense CAGGUACUCCGAAGUCUGUTT; lower-case overhang letters stated to be dideoxynucleotides, upper case undefined, further chemistry not given here)", "values": [
      {"measurement": "thioredoxin activity after siRNA transfection", "setting": "[1]; HMVEC", "value": "significantly stimulated; also recorded: significantly increased"},
      {"measurement": "HMVEC migration after siRNA transfection", "setting": "[2]", "value": "strongly stimulated; also recorded: significantly increased"}
    ]},
    {"molecule": "siRNA directed against Rin2: Double-stranded siRNA to Rin2: sense CUGAAACAGGAGAUGGUGCtt (SEQ ID NO: 8), antisense GCACCAUCUCCUGUUUCAGtt (SEQ ID NO: 9) (sense CUGAAACAGGAGAUGGUGCTT; antisense GCACCAUCUCCUGUUUCAGTT; lower-case overhang letters stated to be dideoxynucleotides, upper case undefined, further chemistry not given here)", "values": [
      {"measurement": "effect of siRNA on growth factor induced endothelial cell migration", "setting": "[2]; HMVEC", "value": "inhibited"}
    ]},
    {"molecule": "VEGF", "values": [
      {"measurement": "thioredoxin activity, agent alone", "setting": "[1]", "value": "induced HMVEC thioredoxin activity significantly above vehicle; also recorded: increased"},
      {"measurement": "EC (HMVEC) migration, stimulus alone", "setting": "[2]", "value": "induced EC migration"},
      {"measurement": "concentration of maximal effects on EC migration", "setting": "[2]", "value": 10, "unit": "ng/mL"},
      {"measurement": "Fold Change CHRM5 (Cholinergic muscarinic receptor 5)", "setting": "HMVECs", "value": 2.0},
      {"measurement": "Fold Change CHRNA3 (Nicotinic receptor alpha polypeptide 3)", "setting": "HMVECs", "value": 1.7},
      {"measurement": "Fold Change CHRNA10 (Nicotinic receptor alpha polypeptide 10)", "setting": "HMVECs", "value": 2.0},
      {"measurement": "Fold Change CHRNB2 (Nicotinic receptor beta polypeptide 2)", "setting": "HMVECs", "value": 6.9},
      {"measurement": "Fold Change CHRNB3 (Nicotinic receptor beta polypeptide 3)", "setting": "HMVECs", "value": 2.2},
      {"measurement": "expression of the VEGF receptor FLT1", "setting": "HMVECs", "value": "induced activation"}
    ]},
    {"molecule": "CN1CCC[C@H]1c1cccnc1", "note": "[nicotine, S-3-(1-methyl-2-pyrrolidinyl)pyridine, reference compound]", "values": [
      {"measurement": "thioredoxin activity, agent alone", "setting": "[1]; [4]", "value": "induced HMVEC thioredoxin activity significantly above vehicle; also recorded: increased"},
      {"measurement": "thioredoxin activity, agent alone", "setting": "[1]; HMVEC, vs vehicle, nicotine 10^−8M, VEGF 10 ng/ml, bFGF 10 ng/ml, hexamethonium 10^−4M, FIG. 4, 5A, listed as Nicotine", "value": "increased"},
      {"measurement": "concentration of maximal stimulation of EC migration", "setting": "[2]; HMVEC, dose range 10^−8M to 10^−4M, FIG. 2A", "value": "10^−8 M"},
      {"measurement": "EC (HMVEC) migration, stimulus alone", "setting": "[2]; [5]", "value": "greater migratory activity; also recorded: induced human microvascular endothelial cell (HMVEC) migration in a dose-dependent fashion"},
      {"measurement": "EC (HMVEC) migration, stimulus alone", "setting": "[2]; vs vehicle, nicotine 10^−8M to 10^−4M, VEGF or bFGF 1-10 ng/ml, FIG. 1, 2A, 5B, listed as Nicotine", "value": "stimulated EC migration in a dose-dependent manner"},
      {"measurement": "expression of the VEGF receptor FLT1", "setting": "HMVECs; [6]", "value": "induced activation"}
    ]},
    {"molecule": "CNC1(C)C2CCC(C2)C1(C)C", "note": "(stereo not shown) [mecamylamine]", "values": [
      {"measurement": "cell death (cellular toxicity)", "setting": "[3]", "value": "did not induce cell death"}
    ]},
    {"molecule": "siRNA directed against P4HA: Double-stranded siRNA to P4HA1: sense GGAUUUGUUGGGCAUCCAGtt (SEQ ID NO: 11), antisense CUGGAUGCCCAACAAAUCCtt (SEQ ID NO: 12) (sense GGAUUUGUUGGGCAUCCAGTT; antisense CUGGAUGCCCAACAAAUCCTT; lower-case overhang letters stated to be dideoxynucleotides, upper case undefined, further chemistry not given here)", "values": [
      {"measurement": "effect of siRNA on growth factor induced endothelial cell migration", "setting": "[2]; HMVEC", "value": "inhibited"}
    ]},
    {"molecule": "C[N+](C)(C)CCCCCC[N+](C)(C)C", "note": "[hexamethonium, hexamethonium bromide]", "values": [
      {"measurement": "effect on nicotine-, VEGF- or bFGF-induced thioredoxin activity", "setting": "[1]", "value": "inhibited"},
      {"measurement": "thioredoxin activity, agent alone", "setting": "[1]", "value": "no significant effect"},
      {"measurement": "cell death (cellular toxicity)", "setting": "[3]; antagonist alone, MTT assay", "value": "did not induce cell death"},
      {"measurement": "effect on growth factor (VEGF or bFGF)-induced EC migration", "setting": "[2]", "value": "significantly attenuated"},
      {"measurement": "effect on nicotine-induced EC migration", "setting": "[2]", "value": "abrogated; also recorded: abolished"}
    ]},
    {"molecule": "α-bungarotoxin", "values": [
      {"measurement": "effect on nicotine-induced EC migration", "setting": "[2]", "value": "abolished"}
    ]},
    {"molecule": "bFGF: human bFGF purchased from R&D Systems; angiogenic growth factor", "values": [
      {"measurement": "thioredoxin activity, agent alone", "setting": "[1]; [4]", "value": "less robust (P=0.02 vs. vehicle) but significant increase; also recorded: increased"},
      {"measurement": "concentration of maximal effects on EC migration", "setting": "[2]; HMVEC, range 1-10 ng/ml", "value": 10, "unit": "ng/mL"},
      {"measurement": "EC (HMVEC) migration, stimulus alone", "setting": "[2]; [5]", "value": "induced EC migration"},
      {"measurement": "expression of the VEGF receptor FLT1", "setting": "HMVECs; [6]", "value": "induced activation"}
    ]},
    {"molecule": "siRNA directed against ARHGEF: Double-stranded siRNA to ARHGEF7: sense GCCUGUGUCUCCCAAAUCAtt (SEQ ID NO: 5), antisense UGAUUUGGGAGACACAGGCtt (SEQ ID NO: 6) (sense GCCUGUGUCUCCCAAAUCATT; antisense UGAUUUGGGAGACACAGGCTT; lower-case overhang letters stated to be dideoxynucleotides, upper case undefined, further chemistry not given here)", "values": [
      {"measurement": "effect of siRNA on growth factor induced endothelial cell migration", "setting": "[2]; HMVEC", "value": "inhibited"}
    ]}
  ]
}
